pEC50: −log10 of the molar value. Read-outs that look alike come from different tables or passages of the source.
Biological target: T1, ΔF508-CFTR (Homo sapiens, UniProt P13569, DEL508-508)
T1 construct: host or cells: CFBE41o-, doxycycline-inducible
Assay: CFTR cell surface levels using HRP-tagged ΔF508-CFTR expressing CFBE cells, in the presence of a co-corrector
Type: cell-based
Source text: Measuring CFTR Cell Surface Levels Using HRP-Tagged ΔF508-CFTR Expressing CFBE Cells
The HRP-tagged ΔF508-CFTR cell assay measures the expression of CFTR-ΔF508 at the plasma membrane. CFTR-ΔF508 has a folding defect leading to absence of protein at the plasma membrane. This assay is used to evaluate the capacity of compounds to increase the expression of CFTR-ΔF508 at the plasma membrane. The CFTR-ΔF508 is tagged with HRP (horse radish peroxidase enzyme) within the ECL4 (Extracellular loop 4) of CFTR (Phuan, P.-W. et al. Synergy-based small-molecule screen using a human lung epithelial cell line yields ΔF508-CFTR correctors that augment VX-809 maximal efficacy. Mol. Pharmacol. 86, 42-51 (2014)). When HRP-tagged ΔF508-CFTR is present at the plasma membrane, the HRP enzyme activity can be measured. The amount of CFTR-ΔF508 that can be rescued to the plasma membrane is correlated with the amount of functional enzyme that can be measured.
There are several ways to measure the capacity of compounds to rescue CFTR-ΔF508 to the plasma membrane; either compounds are evaluated on their own and the impact on plasma membrane levels is measured or compounds are evaluated in combination with a co-corrector, i.e. a compound that rescues CFTR-ΔF508 to the plasma membrane but rescue can be enhanced by addition of compounds due to a complementary mode of action.
Activity of Compounds in Combination with Co-Corrector:
For this purpose doxycycline-inducible ΔF508-CFTR-HRP expressing CFBE4lo− cells (obtained from Gergely Lukacs, McGill University) were maintained in MEM (Minimum Essential Medium, Gibco; 31095) supplemented with 10% fetal bovine serum (Hyclone; SV30160.03) under puromycin (3 μg/mL) and G418 selection (0.2 mg/mL). For compound testing, cells were seeded at 4000 cells/well in white 384-well plates (Greiner; 781080) in 50 μL of medium containing 0.5 μg/mL doxycycline and incubated for 68 hours at 37° C., 5% CO2. On day four, 10 μL of test compounds diluted in PBS (phosphate buffered saline) were added to the plates at a final DMSO concentration of 0.1%. In order to measure compound synergy with a co-corrector, 3 μM co-corrector (3-[(2R,4R)-4-({[1-(2,2-difluoro-1,3-benzodioxol-5-yl)cyclopropyl]carbonyl}amino)-7-methoxy-3,4-dihydro-2H-chromen-2-yl]benzoic acid) was added along with test compounds. All compound plates contained negative controls (DMSO) and positive controls (3 μM co-corrector). Cell plates were incubated at 33° C., 5% CO2 for 20 hours. On day five, the cells were washed five times with phosphate-buffered saline, and HRP activity was assayed by the addition of 50 μL/well of HRP substrate (SuperSignal™ West Pico Chemiluminescent Substrate, Thermo Scientific; 34080). After incubation for 15 minutes in the dark, the chemiluminescence was measured using a plate reader (EnVision®, Perkin Elmer). Raw data were normalized to percentage activity values using the equation: 100×(Sample−Negative control)/(Positive control−Negative Control).

[1] = HRP-tagged ΔF508-CFTR CFBE cells, in the presence of 3 μM co-corrector
[2] = HRP-tagged ΔF508-CFTR CFBE cells, in the presence of 3 μM co-corrector, read-out: EC50

T1 sequence (P13569 with tags, fused parts or gaps DEL508-508): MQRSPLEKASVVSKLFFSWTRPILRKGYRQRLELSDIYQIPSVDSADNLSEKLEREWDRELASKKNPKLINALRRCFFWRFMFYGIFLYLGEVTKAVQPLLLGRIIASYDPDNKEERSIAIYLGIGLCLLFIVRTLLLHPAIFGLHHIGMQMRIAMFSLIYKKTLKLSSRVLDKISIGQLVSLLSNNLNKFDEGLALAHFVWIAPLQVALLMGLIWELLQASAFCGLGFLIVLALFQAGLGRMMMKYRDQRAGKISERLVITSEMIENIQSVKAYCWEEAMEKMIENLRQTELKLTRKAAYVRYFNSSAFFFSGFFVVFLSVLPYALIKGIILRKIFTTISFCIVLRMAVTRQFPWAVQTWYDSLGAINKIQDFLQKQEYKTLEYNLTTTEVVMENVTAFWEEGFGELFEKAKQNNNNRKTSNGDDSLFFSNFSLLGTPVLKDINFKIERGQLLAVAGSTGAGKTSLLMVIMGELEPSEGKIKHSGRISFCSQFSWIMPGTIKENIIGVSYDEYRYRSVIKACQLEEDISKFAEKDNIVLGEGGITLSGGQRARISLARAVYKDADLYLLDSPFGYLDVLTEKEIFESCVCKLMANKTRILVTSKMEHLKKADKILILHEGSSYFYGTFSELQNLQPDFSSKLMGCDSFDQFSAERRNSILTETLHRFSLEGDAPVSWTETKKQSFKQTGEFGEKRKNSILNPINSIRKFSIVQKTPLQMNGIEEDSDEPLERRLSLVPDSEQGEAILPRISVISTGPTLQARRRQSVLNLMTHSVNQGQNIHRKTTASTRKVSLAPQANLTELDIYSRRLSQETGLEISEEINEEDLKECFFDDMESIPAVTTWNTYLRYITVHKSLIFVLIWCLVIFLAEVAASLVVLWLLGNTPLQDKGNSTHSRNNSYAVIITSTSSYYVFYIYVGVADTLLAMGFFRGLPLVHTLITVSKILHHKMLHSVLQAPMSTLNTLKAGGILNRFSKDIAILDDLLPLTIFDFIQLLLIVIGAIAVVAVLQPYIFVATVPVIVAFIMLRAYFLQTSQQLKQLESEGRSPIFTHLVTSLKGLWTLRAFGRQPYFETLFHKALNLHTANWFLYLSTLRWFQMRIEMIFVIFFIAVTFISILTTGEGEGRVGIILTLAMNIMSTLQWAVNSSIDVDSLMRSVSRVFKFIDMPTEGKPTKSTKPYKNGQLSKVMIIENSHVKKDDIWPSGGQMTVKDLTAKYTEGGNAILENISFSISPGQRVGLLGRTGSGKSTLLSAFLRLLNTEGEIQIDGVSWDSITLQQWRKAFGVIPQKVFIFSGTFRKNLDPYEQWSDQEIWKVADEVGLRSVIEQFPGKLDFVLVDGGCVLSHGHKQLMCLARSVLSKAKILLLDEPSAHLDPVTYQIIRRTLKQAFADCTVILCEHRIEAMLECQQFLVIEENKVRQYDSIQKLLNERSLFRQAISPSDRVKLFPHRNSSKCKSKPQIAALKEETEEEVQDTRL

Structure (SMILES) | % Activation [1] | pEC50 [2] | pEC50
CC(C)c1nn(-c2ccc(F)cc2)c2nc(C(=O)NS(C)(=O)=O)cc(N3CC[C@@H](O)[C@H](F)C3)c12 [Compound 344, 4-[(3R,4R)-3-fluoro-4-hydroxypiperidin-1-yl]-1-(4-fluorophenyl)-N-(methanesulfonyl)-3-(propan-2-yl)-1H-pyrazolo[3,4-b]pyridine-6-carboxamide] | 374.5% | 5.97 | –
COCC1(F)CCN(c2cc(C(=O)NS(C)(=O)=O)nc3c2c(C(C)C)nn3-c2ccc(F)cc2)CC1 [Compound 345, 4-[4-fluoro-4-(methoxymethyl)piperidin-1-yl]-1-(4-fluorophenyl)-N-(methanesulfonyl)-3-(propan-2-yl)-1H-pyrazolo[3,4-b]pyridine-6-carboxamide] | 301.1% | 6.65 | –
O=C(NS(=O)(=O)N1CCOCC1)c1cc(OCC2CCOCC2)c2c(C3CCC3)nn(-c3ccccc3)c2n1 [Compound 358, 3-cyclobutyl-N-(morpholine-4-sulfonyl)-4-[(oxan-4-yl)methoxy]-1-phenyl-1H-pyrazolo[3,4-b]pyridine-6-carboxamide] | 242.33% | 7.05 | –
O=C(NS(=O)(=O)N1CCC(N2CCOCC2)CC1)c1cc(OCC2CCOCC2)c2c(C3CCC3)nn(-c3ccccc3)c2n1 [Compound 359, 3-cyclobutyl-N-[4-(morpholin-4-yl)piperidine-1-sulfonyl]-4-[(oxan-4-yl)methoxy]-1-phenyl-1H-pyrazolo[3,4-b]pyridine-6-carboxamide] | 236.25% | 6.52 | –
CN1CCN(C(=O)C2CCN(S(=O)(=O)NC(=O)c3cc(OCC4CCOCC4)c4c(C5CCC5)nn(-c5ccccc5)c4n3)CC2)CC1 [Compound 360, 3-cyclobutyl-N-[4-(4-methylpiperazine-1-carbonyl)piperidine-1-sulfonyl]-4-[(oxan-4-yl)methoxy]-1-phenyl-1H-pyrazolo[3,4-b]pyridine-6-carboxamide] | 182.8% | 7.00 | –
CN1CCN(S(=O)(=O)NC(=O)c2cc(OCC3CCOCC3)c3c(C4CCC4)nn(-c4ccccc4)c3n2)CC1 [Compound 361, 3-cyclobutyl-N-(4-methylpiperazine-1-sulfonyl)-4-[(oxan-4-yl)methoxy]-1-phenyl-1H-pyrazolo[3,4-b]pyridine-6-carboxamide] | 204.1% | 6.74 | –
CC(C)(C)S(=O)(=O)NC(=O)c1cc(OCC2CCOCC2)c2c(C3CCC3)nn(-c3ccccc3)c2n1 [Compound 362, 3-cyclobutyl-N-(2-methylpropane-2-sulfonyl)-4-[(oxan-4-yl)methoxy]-1-phenyl-1H-pyrazolo[3,4-b]pyridine-6-carboxamide] | 195.75% | 6.38 | –
C#CCCS(=O)(=O)NC(=O)c1cc(-c2ccc(N=[N+]=[N-])cc2)c2c(C(C)C)nn(-c3cccc(N(C)C)c3)c2n1 [Compound 363, 4-(4-azidophenyl)-N-(but-3-yne-1-sulfonyl)-1-[3-(dimethylamino)phenyl]-3-(propan-2-yl)-1H-pyrazolo[3,4-b]pyridine-6-carboxamide] | 415.8% | 6.93 | –
COCC1CCN(c2cc(C(=O)NS(=O)(=O)CC#N)nc3c2c(C2CCC2)nn3-c2ccccc2)CC1 [Compound 364, N-(cyanomethanesulfonyl)-3-cyclobutyl-4-[4-(methoxymethyl)piperidin-1-yl]-1-phenyl-1H-pyrazolo[3,4-b]pyridine-6-carboxamide] | 575% | 6.26 | –
COCC1CCN(c2cc(C(=O)NS(=O)(=O)CCn3cccn3)nc3c2c(C2CCC2)nn3-c2ccccc2)CC1 [Compound 372, 3-cyclobutyl-4-[4-(methoxymethyl)piperidin-1-yl]-1-phenyl-N-[2-(1H-pyrazol-1-yl)ethanesulfonyl]-1H-pyrazolo[3,4-b]pyridine-6-carboxamide] | 615.7% | 5.59 | –
CC(C)c1nn(-c2ccc(F)cc2)c2nc(C(=O)NS(C)(=O)=O)cc(N3CCC(N4CCOCC4)CC3)c12 [Compound 411, 1-(4-fluorophenyl)-N-(methanesulfonyl)-4-[4-(morpholin-4-yl)piperidin-1-yl]-3-(propan-2-yl)-1H-pyrazolo[3,4-b]pyridine-6-carboxamide] | 505% | – | 6.32
CC(C)c1nn(-c2ccc(F)cc2)c2nc(C(=O)NS(=O)(=O)N(C)C)cc(N3CCC(N4CCOCC4)CC3)c12 [Compound 412, N-(dimethylsulfamoyl)-1-(4-fluorophenyl)-4-[4-(morpholin-4-yl)piperidin-1-yl]-3-(propan-2-yl)-1H-pyrazolo[3,4-b]pyridine-6-carboxamide] | 436.4% | – | 6.70
CCS(=O)(=O)NC(=O)c1cc(N2CCC(N3CCOCC3)CC2)c2c(C(C)C)nn(-c3ccc(F)cc3)c2n1 [Compound 413, N-(ethanesulfonyl)-1-(4-fluorophenyl)-4-[4-(morpholin-4-yl)piperidin-1-yl]-3-(propan-2-yl)-1H-pyrazolo[3,4-b]pyridine-6-carboxamide] | 455.9% | – | 7.04
CC(C)c1nn(-c2ccc(F)cc2)c2nc(C(=O)NS(=O)(=O)C3CC3)cc(N3CCC(N4CCOCC4)CC3)c12 [Compound 414, N-(cyclopropanesulfonyl)-1-(4-fluorophenyl)-4-[4-(morpholin-4-yl)piperidin-1-yl]-3-(propan-2-yl)-1H-pyrazolo[3,4-b]pyridine-6-carboxamide] | 508.3% | – | 6.80
CCS(=O)(=O)NC(=O)c1cc(N2CCC(N3CCCCC3)CC2)c2c(C3CCC3)nn(-c3ccccc3)c2n1 [Compound 427, 4-([1,4′-bipiperidin]-1′-yl)-3-cyclobutyl-N-(ethanesulfonyl)-1-phenyl-1H-pyrazolo[3,4-b]pyridine-6-carboxamide] | 419.5% | – | 6.79
O=C(NS(=O)(=O)C1CC1)c1cc(N2CCC(N3CCCCC3)CC2)c2c(C3CCC3)nn(-c3ccccc3)c2n1 [Compound 428, 4-([1,4′-bipiperidin]-1′-yl)-3-cyclobutyl-N-(cyclopropanesulfonyl)-1-phenyl-1H-pyrazolo[3,4-b]pyridine-6-carboxamide] | 434.7% | – | 7.11
CC(C)Oc1nn(C2CCCCC2)c2nc(C(=O)NS(=O)(=O)N(C)C)cc(-c3ccc(CN4CCCCC4)cc3)c12 [Compound 443, 1-cyclohexyl-N-(dimethylsulfamoyl)-4-{4-[(piperidin-1-yl)methyl]phenyl}-3-[(propan-2-yl)oxy]-1H-pyrazolo[3,4-b]pyridine-6-carboxamide] | 332.5% | 6.74 | –
CCS(=O)(=O)NC(=O)c1cc(N2CCC(C(C)N3CCOCC3)CC2)c2c(C3CCC3)nn(-c3ccc(F)cc3)c2n1 (centres unmarked) [Compound 446, 3-cyclobutyl-N-(ethanesulfonyl)-1-(4-fluorophenyl)-4-{4-[1-(morpholin-4-yl)ethyl]piperidin-1-yl}-1H-pyrazolo[3,4-b]pyridine-6-carboxamide] | 669.9% | 7.11 | –
O=C(NS(=O)(=O)C1CCOC1)c1cc(-c2ccc(CN3CCOCC3)cc2)c2c(OC3CCC3)nn(C3CCCCC3)c2n1 (centres unmarked) [Compound 467, 3-(cyclobutyloxy)-1-cyclohexyl-4-{4-[(morpholin-4-yl)methyl]phenyl}-N-(oxolane-3-sulfonyl)-1H-pyrazolo[3,4-b]pyridine-6-carboxamide] | 229.15% | 6.57 | –

Source: patent publication US10259810B2, “N-sulfonylated pyrazolo[3,4-b]pyridin-6-carboxamides and method of use” (AbbVie S.à.r.l., priority 2015, dated 2019)
